According to US9828344B2, “Inhibitors of the notch signaling pathway and secretion for use in medicine” (Leibniz-Institut für Altersforschung Fritz-Lipmann-Institut …, priority 2012, dated 2017):
Peptide text beside a SMILES is read from it. * marks the point of attachment. Cbz = O=C(OCc1ccccc1)*; OtBu = CC(C)(C)O*

Assays:
APP = APP processing in HEK293 cells stably expressing APPswe; format: cell-based; details: 10 μM, 16 h
Method: FIG. 3: Effect of compounds on NotchΔE-EGFP, APP and Klotho trafficking and processing. a) HEK293 stably expressing APPswe or Klotho (KI) were incubated with DAPT or compounds (10 μM) for 16 h. Media were collected, cells lysed and both assayed by Western blotting using indicated antibodies. m, mature; im, immature; s, shedded ectodomain; CTF, C-terminal fragment. b) Membranes from HeLa-NotchΔE-EGFP and APPswe cells were isolated and subjected to a γ-secretase in vitro assay in the presence of DAPT or compounds as indicated. NICD and AICD were detected by Western Blotting using antibodies against the C-terminus of APP (top) or antibodies specific for NICD (bottom). c) Quantitation from 5 independent experiments.
To test if the compounds that affected NotchΔE-EGFP processing also affected APP processing, HEK293 cells were used that stably expressed APPswe, a mutated APP that yields robust amounts of Aβ^18. […] All other compounds had no effect on APPCTF or Aβ.
APP, APPs, APPCTF and Aβ detection was as described before^54 using antibodies 22C11 for APP and APPs, 6687 for APPCTF and 3552 and 2D8 for Aβ. Klotho was detected as described in Bloch et al.^20. Chemoluminescence was quantified on a LAS-4000 (Fuji) with MultiGauge software.

NotchΔE-EGFP [1] = experiment: Fluorescence microscopy of reporter localization in HeLa NotchΔE-EGFP cells; format: cell-based; details: 50 μM compound
NotchΔE-EGFP [2] = experiment: Reporter localization in U2OS cells stably expressing NotchΔE-EGFP; format: cell-based; details: 10 iM, 18 h
Method: FIG. 9: Compound effects are not cell-type specific. U2OS cells stably expressing NotchΔE-EGFP were incubated for 18 h with 10 iM compounds as indicated, fixed and imaged by fluorescence microscopy. […] Arrows, plasma membrane; arrowheads, ER. Asterisks indicate cells where the ER collapsed to large aggregates. Scalebar, 10 im.

[3] = system: endogenous Notch signaling; experiment: Luciferase Notch reporter assay in C2C12 cells transfected with Delta; format: cell-based; details: 16 h
Method: (§1) Cells were incubated with DAPT or 10 μM of the indicated compounds (50 μM in case of FLI-15 and -20) and after 16 h a luciferase assay was performed. […] Changes in relative gene expression levels (fold change) relative to the expression levels in DMSO controls are represented as the mean+/−SD, asterisks indicate p<0.01. Each measurement was taken from two independent samples. Each reaction was measured in triplicate. Changes in the relative expression of ngn1 were standardized to the expression of the housekeeping gene ef1a at 20 hpf. c) ISH with riboprobes specific for ngn1 was performed on dechorionated stage 4 hpf zebrafish embryos. Anterior is to the left, dorsal to the top. Magnifications of the somite region (small box) are shown. Arrows indicate larger ngn1 clusters or stronger ngn1 staining. s, sensory neurons; i, intermediate neurons; m, motor neurons.
(§2) We wanted to test whether the results obtained with the NotchΔE-EGFP construct are relevant for endogenous Notch signaling. Therefore we made use of C2C12 cells, a well established model for muscle development that expresses endogenous Notch^21,22. After stimulating endogenous Notch signaling by transfecting the Notch ligand Delta, Notch activity was measured by a luciferase assay using a Notch reporter^15 in the presence or absence of compounds (FIG. 4a). […] Next, we tested whether selected compounds would affect Notch signaling in vivo. […] Compounds were added to dechorionated stage 4 hpf zebrafish embryos and the effects were analyzed after 24 h by morphological inspection of somite formation. Phenotypes were ranked to four categories, normal somites, mild somite defects, strong somite defects and developmental delay. […] As an additional parameter we decided to analyze Notch-dependent genes involved in neurogenesis. Primary neurogenesis in zebrafish involves the selection of neuroblasts (repressed by Notch) from proneural clusters (Notch expressing cells), a process regulated in a negative manner by Notch-dependent lateral inhibition^25. Accordingly, neuroblast cells that express the neuronal specification factor neurogenin (ngn1^26) became more abundant when Notch signaling was impaired, for instance upon DAPT treatment^23,27. qPCR analyses on mRNA extracted from equivalent sets of embryos was performed for ngn1 expression (FIG. 4b). […] To confirm the data obtained by qPCR, whole-mount in-situ hybridizations (ISH) using an ngn1 specific riboprobe were performed (FIG. 4c, FIG. 11c). […] Taken together, FLI-06, -14, -15, -19 and -20 inhibited endogenous Notch signaling in vitro and in vivo, corroborating the NotchΔE-EGFP reporter data.
Endogenous Notch signaling in C2C12 was determined by a luciferase assay using a 12xCSL-luciferase reporter and transfected Delta as described before^15.

NotchΔE-EGFP [4] = experiment: Western blot of NotchΔE-EGFP processing in HeLa NotchΔE-EGFP lysates; format: cell-based; details: 10 μM, 18 h
Method: FIG. 2: Selected compounds from final hit list show distinct phenotypes. Hela NotchΔE-EGFP cells were incubated with compounds (10 μM) for 18 h, fixed and analyzed by fluorescence microscopy (a) or lysed, separated by SDS-PAGE, blotted and probed with antibodies against GFP and NICD (b). Tubulin served as loading control. c) Quantitation of NotchΔE-EGFP accumulation and NICD production from 3-4 experiments as shown in (b). […] Arrows, plasma membrane; scalebar, 10 μm.
Next, lysates of HeLa NotchΔE-EGFP cells treated with compounds were analyzed for processing of NotchΔE-EGFP by Western blot using antibodies specific for EGFP and NICD (FIG. 2b, c). The GFP antibody detected both the uncleaved reporter NotchΔE-EGFP and the γ-secretase product NICD-EGFP, whereas the NICD-specific antibody specifically detected cleaved NICD-EGFP. […] The observed effects were not cell type specific, as they were also apparent in U2OS cells stably expressing NotchΔE-EGFP (FIG. 9).

zebrafish embryos = experiment: Zebrafish embryo Notch phenotype (somites, ngn1 qPCR and ISH); format: in vivo, zebrafish Danio rerio; details: 50 μM; for ngn1 positive cell clusters in the developing brain (ISH): compared to DMSO controls; for ngn1 positive cell clusters along the spinal cord (ISH): compared to DMSO-treated control embryos; for ngn1 mRNA levels (qPCR): relative to DMSO controls
Method: as §1
FIG. 11: Selected compounds affect somite formation and neurogenesis in vivo in zebrafish embryos. a) Lateral view of typical representative phenotypes induced by DAPT treatment, which were used as a reference to score the effect of compounds. […] Images were taken at 24 hpf. b) Pie chart showing the cumulative relative frequency of the phenotypes in a) at 24 hpf in embryos treated with 20, 50 and 100 iM of the indicated compounds. c) ISH with riboprobes specific for ngn1 was performed on dechorionated stage 4 hpf zebrafish embryos. Anterior is to the left, dorsal to the top. Magnifications of the developing head (box) are shown. Arrows indicate larger ngn1 clusters or stronger ngn1 staining. t, telencephalon; p, protectum; h, hindbrain; d, diencephalon; tg, tegmentum; vrc, ventral rostral cluster.
as §2
Embryos were obtained from natural spawning of wild-type TüAB strain adults, raised and staged according to supp. Ref 14. DAPT and compounds were applied at 50 iM in E3 embryo medium to zebrafish embryos with chorions torn but not completely removed from sphere stage until the stage of analysis, according to ref 23. Control embryos were mock treated with the same concentration of DMSO dissolved in E3 embryo medium. […]

Compound | APPCTF in cells (APP) | Aβ in the cell supernatant (APP) | localization of NotchΔE-EGFP/NICD-EGFP (NotchΔE-EGFP [1]) | localization of NotchΔE-EGFP in U2OS cells (NotchΔE-EGFP [2]) | inhibition of endogenous Notch signaling ([3]; 10 μM) | inhibition of endogenous Notch signaling ([3]; 50 μM) | NICD-EGFP production (NotchΔE-EGFP [4]) | NotchΔE-EGFP level (GFP antibody) (NotchΔE-EGFP [4]) | ngn1 positive cell clusters in the developing brain (ISH) (zebrafish embryos) | ngn1 positive cell clusters along the spinal cord (ISH) (zebrafish embryos) | ngn1 mRNA levels (qPCR) (zebrafish embryos) | APPs (shedded ectodomain) secretion (APP) | glycosylation pattern of APP (APP)
Cc1ccc(NC(=O)C(NS(=O)(=O)c2cccc3nsnc23)C(C)C)nc1 (stereo not drawn) [FLI-15] | accumulated | weakly reduced | strong reduction of nuclear NICD-EGFP fluorescence and concomitant accumulation at the PM | PM accumulation similar to DAPT | hardly affected Notch signaling | remarkably | decreased NICD-EGFP production | accumulation of NotchΔE-EGFP | differentially expanded | expanded and denser clusters of ngn1 positive cells | significantly increased | – | –
CC1=C(C(=O)OC2CCCCC2)C(c2ccc([N+](=O)[O-])cc2)C2=C(CC(C)(C)CC2=O)N1 (stereo not drawn) [FLI-06, Cyclohexyl 4-(4′-nitrophenyl)-2,7,7-trimethyl-5-oxo-1,4,5,6,7,8-hexahydroquinoline-3-carboxylate] | no APPCTF accumulated | essentially disappeared | – | ER accumulation of the reporter and in some cells aggregation | strongly | – | decreased NICD-EGFP production | accumulation of NotchΔE-EGFP | differentially expanded | expanded and denser clusters of ngn1 positive cells | significantly increased | abolished the shedding of APPs | changed the glycosylation pattern of APP
CC(C)CC(NC(=O)C(Cc1ccccc1)NC(=O)C1CCCN1C(=O)OCc1ccccc1)C(=O)OC(C)(C)C (stereo not drawn) [FLI-19] (Cbz-Pro-Phe-Leu-OtBu; configuration not given here) | – | – | strong reduction of nuclear NICD-EGFP fluorescence and concomitant accumulation at the PM | PM accumulation similar to DAPT | considerably | – | – | accumulation of NotchΔE-EGFP | – | increased | did not induce significant changes | reduced APPs secretion | –
CC(=O)Nc1ccc2nc(NC(=O)CC34CC5CC(CC(C5)C3)C4)sc2c1 [FLI-20] | accumulated | weakly reduced | strong reduction of nuclear NICD-EGFP fluorescence and concomitant accumulation at the PM | PM accumulation similar to DAPT | hardly affected Notch signaling | remarkably | decreased NICD-EGFP production | accumulation of NotchΔE-EGFP | differentially expanded | expanded and denser clusters of ngn1 positive cells | significantly increased | reduced APPs secretion | –
Cn1c2ccccc2c2c(C(=O)N3CCN(Cc4ccc5c(c4)OCO5)CC3)cn(C3CCCC3)c(=O)c21 [FLI-14] | accumulated | essentially disappeared | strong reduction of nuclear NICD-EGFP fluorescence and concomitant accumulation at the PM | PM accumulation similar to DAPT | strongly | – | decreased NICD-EGFP production | accumulation of NotchΔE-EGFP | differentially expanded | expanded and denser clusters of ngn1 positive cells | significantly increased | – | –
